Laboratory results taken from the supplement of paper PMC6004109.

Tests used:
Conditions in all cases: temperature: 37 °C
[1] = system: Saccharomyces cerevisiae ZIM 2247 (RPMI); assay: Bliss independence sum of statistically significant ΔE (measured minus predicted growth inhibition) over checkerboard surface (fraction (sum of ΔE; 1 = 100%)); higher = more synergy
[2] = system: Candida glabrata ZIM 2385 (RPMI); assay: as above
[3] = system: Saccharomyces cerevisiae ZIM 2558 (RPMI); assay: as above
[4] = system: Candida glabrata ZIM 2389 (RPMI); assay: as above
[5] = system: Saccharomyces cerevisiae ZIM 2260 (RPMI); assay: as above
[6] = system: Saccharomyces cerevisiae ZIM 2269 (RPMI); assay: as above
[7] = system: Candida glabrata ZIM 2344 (RPMI); assay: as above
[8] = system: Candida glabrata ZIM 2382 (RPMI); assay: as above
[9] = system: Candida glabrata ATCC 2001 (YPD); assay: FICI minimum (fractional inhibitory concentration index, Loewe) (dimensionless); higher = less synergy / more antagonism
In short: (§1)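 Yeast strains were tested against two-drug combinations by CLSI M27-A3 checkerboard broth microdilution, with clinical isolates in RPMI and C. glabrata ATCC 2001 and a strain derived from it in YPD. Each well held 100 µl of drug dilutions plus 100 µl of an inoculum at 3–5 × 10^3 cells/ml, incubated at 37 °C and read at 48 h as background-subtracted OD600 in at least biological triplicates. The reported figure is the lowest or highest Loewe fractional inhibitory concentration index across the combination surface, summing for each drug its MIC in combination divided by its MIC alone. Depending on the drug, the MIC was taken as MIC50 or MIC90.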

[10] = system: Candida glabrata ATCC 2001 pdr1 deletion mutant (YPD); assay: as above
In short: as §1

[11] = system: Candida glabrata ATCC 2001 (YPD); assay: FICI maximum (fractional inhibitory concentration index, Loewe) (dimensionless); higher = less synergy / more antagonism
In short: as §1

[12] = system: Candida glabrata ATCC 2001 pdr1 deletion mutant (YPD); assay: as above
In short: as §1

[13] = system: Candida glabrata ATCC 2001 (YPD); assay: Bliss independence sum of statistically significant ΔE (measured minus predicted growth inhibition) over checkerboard surface (fraction (sum of ΔE; 1 = 100%)); higher = more synergy
[14] = system: Candida glabrata ATCC 2001 pdr1 deletion mutant (YPD); assay: as above

Structure (SMILES)	Bliss independence sum [1]	Bliss independence sum [2]	Bliss independence sum [3]	Bliss independence sum [4]	Bliss independence sum [5]	Bliss independence sum [6]	Bliss independence sum [7]	Bliss independence sum [8]	FICI minimum [9]	FICI minimum [10]	FICI maximum [11]	FICI maximum [12]	Bliss independence sum [13]	Bliss independence sum [14]
CC1(C)S[C@@H]2[C@H](NC(=O)[C@H](N)c3ccc(O)cc3)C(=O)N2[C@H]1C(=O)O [amoxicillin] + CCC(C)n1ncn(-c2ccc(N3CCN(c4ccc(OCC5COC(Cn6cncn6)(c6ccc(Cl)cc6Cl)O5)cc4)CC3)cc2)c1=O [itraconazole]	-3.04	-0.894	0.394	0.79	0.613	0.212	3	-0.629						
CC1(C)S[C@@H]2[C@H](NC(=O)[C@H](N)c3ccc(O)cc3)C(=O)N2[C@H]1C(=O)O [amoxicillin] + C[C@@H]1[C@H](O)[C@@H](C)/C=C/C=C/C=C/C=C/C=C/C=C/C=C/[C@H](O[C@@H]2O[C@H](C)[C@@H](O)[C@H](N)[C@@H]2O)C[C@@H]2O[C@](O)(C[C@@H](O)C[C@@H](O)[C@H](O)CC[C@@H](O)C[C@@H](O)CC(=O)O[C@H]1C)C[C@H](O)[C@H]2C(=O)O [amphotericin B]	-2.91	2.19	-2.25	2.34	0.295	2.97	1.9	0.631						
CN(Cc1cnc2nc(N)nc(N)c2n1)c1ccc(C(=O)N[C@@H](CCC(=O)O)C(=O)O)cc1 [methotrexate] + CCC(C)n1ncn(-c2ccc(N3CCN(c4ccc(OCC5COC(Cn6cncn6)(c6ccc(Cl)cc6Cl)O5)cc4)CC3)cc2)c1=O [itraconazole]	0.35	-0.777	1.01	0.179	-0.71	-0.796	-0.688	-1.18						
CN(Cc1cnc2nc(N)nc(N)c2n1)c1ccc(C(=O)N[C@@H](CCC(=O)O)C(=O)O)cc1 [methotrexate] + C[C@@H]1[C@H](O)[C@@H](C)/C=C/C=C/C=C/C=C/C=C/C=C/C=C/[C@H](O[C@@H]2O[C@H](C)[C@@H](O)[C@H](N)[C@@H]2O)C[C@@H]2O[C@](O)(C[C@@H](O)C[C@@H](O)[C@H](O)CC[C@@H](O)C[C@@H](O)CC(=O)O[C@H]1C)C[C@H](O)[C@H]2C(=O)O [amphotericin B]	-2.39	-1.71	-1.12	-2.52	2	0.225	1.26	-0.569						
CN(Cc1cnc2nc(N)nc(N)c2n1)c1ccc(C(=O)N[C@@H](CCC(=O)O)C(=O)O)cc1 [methotrexate] + OC(Cn1cncn1)(Cn1cncn1)c1ccc(F)cc1F [fluconazole]	-0.857	-0.819	8.35	0.272	-0.0461	-1.86	1.94	-1.36						
COc1c(C)c2c(c(O)c1C/C=C(\C)CCC(=O)O)C(=O)OC2 [mycophenolic acid] + C[C@@H]1[C@H](O)[C@@H](C)/C=C/C=C/C=C/C=C/C=C/C=C/C=C/[C@H](O[C@@H]2O[C@H](C)[C@@H](O)[C@H](N)[C@@H]2O)C[C@@H]2O[C@](O)(C[C@@H](O)C[C@@H](O)[C@H](O)CC[C@@H](O)C[C@@H](O)CC(=O)O[C@H]1C)C[C@H](O)[C@H]2C(=O)O [amphotericin B]	-2.18	2.79	3.61	4.37	3.32	6.09	4.74	1.76						
COc1c(C)c2c(c(O)c1C/C=C(\C)CCC(=O)O)C(=O)OC2 [mycophenolic acid] + OC(Cn1cncn1)(Cn1cncn1)c1ccc(F)cc1F [fluconazole]	-2.82	-0.722	-8.75	1.41	-1.55	-3.9	6.94	-1.7	1.06	1.03	2.5	2.12	-2.6	-3.21
C=CC[C@@H]1/C=C(\C)C[C@H](C)C[C@H](OC)[C@H]2O[C@@](O)(C(=O)C(=O)N3CCCC[C@H]3C(=O)O[C@H](/C(C)=C/[C@@H]3CC[C@@H](O)[C@H](OC)C3)[C@H](C)[C@@H](O)CC1=O)[C@H](C)C[C@@H]2OC [tacrolimus] + CCC(C)n1ncn(-c2ccc(N3CCN(c4ccc(OCC5COC(Cn6cncn6)(c6ccc(Cl)cc6Cl)O5)cc4)CC3)cc2)c1=O [itraconazole]	6.82	5.63	8.75	8.47	10.8	4.75	5.44	1.94						
C=CC[C@@H]1/C=C(\C)C[C@H](C)C[C@H](OC)[C@H]2O[C@@](O)(C(=O)C(=O)N3CCCC[C@H]3C(=O)O[C@H](/C(C)=C/[C@@H]3CC[C@@H](O)[C@H](OC)C3)[C@H](C)[C@@H](O)CC1=O)[C@H](C)C[C@@H]2OC [tacrolimus] + C[C@@H]1[C@H](O)[C@@H](C)/C=C/C=C/C=C/C=C/C=C/C=C/C=C/[C@H](O[C@@H]2O[C@H](C)[C@@H](O)[C@H](N)[C@@H]2O)C[C@@H]2O[C@](O)(C[C@@H](O)C[C@@H](O)[C@H](O)CC[C@@H](O)C[C@@H](O)CC(=O)O[C@H]1C)C[C@H](O)[C@H]2C(=O)O [amphotericin B]	20.9	7.14	9.97	0.693	9.87	19.1	7.88	0.265						
C=CC[C@@H]1/C=C(\C)C[C@H](C)C[C@H](OC)[C@H]2O[C@@](O)(C(=O)C(=O)N3CCCC[C@H]3C(=O)O[C@H](/C(C)=C/[C@@H]3CC[C@@H](O)[C@H](OC)C3)[C@H](C)[C@@H](O)CC1=O)[C@H](C)C[C@@H]2OC [tacrolimus] + OC(Cn1cncn1)(Cn1cncn1)c1ccc(F)cc1F [fluconazole]	8.81	5.34	1.84	8	6.04	8.35	4.23	1.68						
